Data from PubChem BioAssay (NCI).
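These data come from cells grown in 96-well plates and exposed to compound for 48 hours at five concentrations. GI50 = concentration required for 50% inhibition of growth. Definition used: TGI = concentration required for complete inhibition of growth.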

Legend:
Test in all cases: growth of human tumour cells (NCI), 48 h
SW-620 colon = test system: SW-620 colon
LOX IMVI melanoma = test system: LOX IMVI melanoma
NCI-H23 lung = test system: NCI-H23 lung
IGROV1 ovarian = test system: IGROV1 ovarian
SK-MEL-2 melanoma = test system: SK-MEL-2 melanoma
HCT-15 colon = test system: HCT-15 colon
SK-MEL-5 melanoma = test system: SK-MEL-5 melanoma
EKVX NSCLC = test system: EKVX NSCLC
HCC-2998 colon = test system: HCC-2998 colon
BT-549 breast = test system: BT-549 breast

Structure (SMILES)	TGI (SW-620 colon)	TGI (LOX IMVI melanoma)	TGI (NCI-H23 lung)	TGI (IGROV1 ovarian)	TGI (SK-MEL-2 melanoma)	TGI (HCT-15 colon)	TGI (SK-MEL-5 melanoma)	TGI (EKVX NSCLC)	TGI (HCC-2998 colon)	TGI (BT-549 breast)	GI50 (SW-620 colon)	GI50 (LOX IMVI melanoma)	GI50 (NCI-H23 lung)	GI50 (IGROV1 ovarian)	GI50 (SK-MEL-2 melanoma)	GI50 (HCT-15 colon)	GI50 (SK-MEL-5 melanoma)	GI50 (EKVX NSCLC)	GI50 (HCC-2998 colon)
CC1OC=CC(=O)C1O (stereo not given)	> 100 µM	> 100 µM	> 100 µM	> 100 µM	> 100 µM	> 100 µM	> 100 µM	> 100 µM	> 100 µM										
C=C(C(=O)OC)[C@H]1CC/C(C)=C/CC/C(C)=C/CC[C@@]2(C)O[C@@H]2C1	37.2 µM	28.8 µM	68.1 µM	31.5 µM	29.9 µM	31.7 µM	22 µM	39.5 µM	30.8 µM										
O=C(C=P(c1ccccc1)(c1ccccc1)c1ccccc1)c1ccc(-c2ccc(F)cc2F)cc1	14.9 µM		12.2 µM			7.81 µM	3.55 µM	11 µM	4.12 µM										
c1ccc(COc2cccc3cccnc23)cc1	> 100 µM	> 100 µM	> 100 µM	> 100 µM			> 100 µM	> 100 µM	> 100 µM										
C[n+]1c(-c2ccc(/C=N/Nc3ccnc(N/N=C/c4ccc(-c5cn6ccccc6[n+]5C)cc4)n3)cc2)cn2ccccc21	> 100 µM			> 100 µM		> 100 µM	> 100 µM	> 100 µM	> 100 µM										
CCCCCCCCCCCCCCCCNc1ccn(C2CC(OP(=O)(O)OCC3OC(n4cc(CC)c(=O)[nH]c4=O)CC3O)C(CO)O2)c(=O)n1 (stereo not given)	65.4 µM	> 100 µM	> 100 µM	> 100 µM	39.1 µM	72.5 µM		> 100 µM	88 µM										
CN(CCN(C)C(=O)CCn1ccc(=O)[nH]c1=O)C(=O)CCn1ccc(=O)[nH]c1=O	> 100 µM	> 100 µM	> 100 µM	> 100 µM	> 100 µM	> 100 µM	> 100 µM	> 100 µM	> 100 µM										
O=C(NC/C=C/Br)NC1CCNc2ccccc21 (stereo not given)	> 100 µM	56.8 µM	55.4 µM	> 100 µM	86.8 µM	> 100 µM	37.7 µM	92.6 µM	59 µM										
C=C1CC(OC)(C(O)C(=O)N[C@H]2OCO[C@H]3C2O[C@H](C[C@H](O)COC)C(C)(C)C3OC)O[C@H](C)[C@@H]1C (stereo not given in full)			> 0.00772 µM	> 0.00772 µM		> 0.00772 µM	> 0.00772 µM	> 0.00772 µM	> 0.00772 µM										
O=S(=O)(/N=C1/SC(=Nc2ccccc2)N(c2ccccc2)/C1=N/S(=O)(=O)c1ccccc1)c1ccccc1	44.2 µM		34.5 µM	46.7 µM	45 µM	34.5 µM	31.3 µM	76.8 µM	48.7 µM	79.2 µM									
c1ccc(-c2[nH]c(-c3ccccc3)c(-c3cnccn3)c2-c2cnccn2)cc1	> 100 µM	> 100 µM	> 100 µM	> 100 µM	> 100 µM	> 100 µM	> 100 µM	> 100 µM	> 100 µM										
CC1(C)Oc2ccc3c(=O)c4ccccc4oc3c2C1C(=O)O (stereo not given)			> 100 µM	> 100 µM	> 100 µM		> 100 µM	> 100 µM	> 100 µM	> 100 µM									
CC1(C)CC(=O)C(=CN2C(=O)CNC2=S)C(=O)C1	> 100 µM		> 100 µM	> 100 µM	> 100 µM	> 100 µM	> 100 µM	> 100 µM	> 100 µM	> 100 µM									
Oc1ccc2ccccc2c1OCc1nnc(CCCCCCCCc2nnc(COc3c(O)ccc4ccccc34)o2)o1	> 100 µM		> 100 µM	> 100 µM	> 100 µM	> 100 µM	> 100 µM	> 100 µM	> 100 µM	> 100 µM									
COc1ccc(NC(=S)NNC(=O)c2cc(-c3ccccc3)nc3ccccc23)cc1	41.6 µM		30.6 µM	> 100 µM	38.9 µM	33.7 µM	25.6 µM		24.6 µM	39.8 µM									
NC1CCCCC1N.O=S(=O)([O-])CCCN1CCN(CCO)CC1.O=S(=O)([O-])CCCN1CCN(CCO)CC1.[Pt+4]	21 µM	> 100 µM	> 100 µM	> 100 µM	23.4 µM	> 61.4 µM	17.2 µM	> 100 µM	> 63.4 µM		2.29 µM	5.97 µM	7.36 µM	8.14 µM	13.1 µM	2.63 µM	2.57 µM	55.4 µM	9.55 µM
CC(=O)[C@H]1CCC2[C@@H]3CC=C4C(O)C(OS(=O)(=O)O)CC[C@]4(C)C3CC[C@@]21C (stereo not given in full)	> 100 µM	> 100 µM	> 100 µM	> 100 µM	> 100 µM	> 100 µM	> 100 µM	> 100 µM	> 100 µM										

Structure (SMILES)	TGI (SW-620 colon)	TGI (LOX IMVI melanoma)	TGI (NCI-H23 lung)	TGI (IGROV1 ovarian)	TGI (SK-MEL-2 melanoma)	TGI (HCT-15 colon)	TGI (SK-MEL-5 melanoma)	TGI (EKVX NSCLC)	TGI (HCC-2998 colon)	TGI (BT-549 breast)	GI50 (SW-620 colon)	GI50 (LOX IMVI melanoma)	GI50 (NCI-H23 lung)	GI50 (IGROV1 ovarian)	GI50 (SK-MEL-2 melanoma)	GI50 (HCT-15 colon)	GI50 (SK-MEL-5 melanoma)	GI50 (EKVX NSCLC)	GI50 (HCC-2998 colon)
C/C(=C\CNc1nc(Cl)nc2nc[nH]c12)CO	> 100 µM	> 100 µM	> 100 µM	> 100 µM			> 100 µM	> 100 µM	> 100 µM										
CCOC(=O)c1c(-c2ccc(OC)c(O)c2)c(C#N)c(=S)n(C2OC(CO)C(O)C(O)C2O)c1-c1ccccc1 (stereo not given)	> 100 µM	> 100 µM	> 100 µM	> 100 µM		> 100 µM	> 100 µM	> 100 µM	> 100 µM										
CCCCCCc1cn([C@H]2C[C@H](O)[C@@H](CO)O2)c(=O)[nH]c1=O	> 100 µM	> 100 µM	> 100 µM	> 100 µM	> 100 µM	> 100 µM	> 100 µM	> 100 µM	> 100 µM										
O=C1OC(c2ccccc2)=N/C1=C/N1CCCC1C(=O)O (stereo not given)	> 100 µM	> 100 µM	> 100 µM	> 100 µM	> 100 µM	> 100 µM	> 100 µM	> 100 µM	> 100 µM										
C=CCn1c(=O)c2ccccc2[n+]2c(-c3cccc([N+](=O)[O-])c3)csc12	> 100 µM	> 100 µM	> 100 µM	> 100 µM	> 100 µM		36.5 µM	> 100 µM	> 100 µM										
C[C@@H]1OCC(O)C([C@H]2OC(c3ccccc3)=N[C@H]2CO)O1 (stereo not given in full)	> 100 µM	> 100 µM	> 100 µM	> 100 µM	> 100 µM	> 100 µM	> 100 µM	> 100 µM	> 100 µM										
O=C(NCCCCNCCCNC(=O)OCc1ccccc1)OCc1ccccc1	> 100 µM		> 100 µM	73.9 µM	59.8 µM	> 100 µM	32.5 µM	> 100 µM	38.7 µM	> 100 µM									
CC(=O)O[C@H]1C(=O)[C@@]2(C)C(C(OC(=O)c3ccccc3)[C@]3(O)CC(OC(=O)C(O)C(NC(=O)c4ccccc4)c4ccc(C)cc4)C(C)=C1C3(C)C)[C@]1(OC(C)=O)CO[C@@H]1C[C@@H]2O (stereo not given in full)	0.0256 µM	6.75 µM	21.8 µM	19 µM	0.121 µM	8.01 µM		> 25 µM											
O=C(O)CCCc1ccc2c(c1)CC1(C2)Cc2ccc(CCCC(=O)O)cc2C1		> 100 µM	> 100 µM	> 100 µM	> 100 µM	> 100 µM	> 100 µM	> 100 µM	> 100 µM										
CC1(C)N=C(N)N=C(N)N1c1ccc(OCCCOc2ccccc2)c(Cl)c1	13.7 µM	13.7 µM	10.7 µM	7.52 µM	16.9 µM	> 100 µM	3 µM	14.4 µM	13.1 µM										
CN(C)c1ccc(/C=C2\C[C@H]3[C@@H]4CCc5cc(O)ccc5[C@H]4CC[C@]3(C)C2=O)cc1	> 100 µM	> 100 µM	> 100 µM	> 100 µM	> 100 µM	> 100 µM	> 100 µM	> 100 µM	> 100 µM										
COc1cccc2c1[C@]1(O)C(O)CCCC21 (stereo not given in full)	> 100 µM	> 100 µM	> 100 µM	> 100 µM	> 100 µM	> 100 µM	> 100 µM		> 100 µM										
c1ccc(CNc2ncnc3n[nH]nc23)cc1	> 100 µM	> 100 µM	> 100 µM	> 100 µM	> 100 µM	> 100 µM	> 100 µM	> 100 µM	> 100 µM										
COc1ccc(NS(=O)c2cccc(C)c2)cc1 (stereo not given)	> 100 µM	> 100 µM	> 100 µM	> 100 µM		> 100 µM	75 µM	> 100 µM	33.6 µM										
O=C1OC2C=CC1C1(CCOC1=O)C2 (stereo not given)	> 100 µM	> 100 µM	> 100 µM	> 100 µM	> 100 µM	> 100 µM	> 100 µM	> 100 µM	> 100 µM										
CN(C)C=Nc1nncc2n[nH]nc12	> 100 µM		> 100 µM	> 100 µM	> 100 µM	> 100 µM	> 100 µM	> 100 µM		> 100 µM									
CC1(C)CC2(C)OC(=N)C1(C#N)C2(C#N)C#N (stereo not given)	11.1 µM	3.09 µM	21.4 µM	29.9 µM	31.7 µM	4.84 µM	21 µM	19.4 µM	24.4 µM										
